These are literature values, as cited in patent US20060106545A1, “Methods of clustering proteins” (Jubilant Biosys Ltd., priority 2004, published 2006).

In one series the target is PKB (Protein kinase B) (Homo sapiens, UniProt P31749).
Series [1] relates to MKK (Mitogen activated protein kinase kinase).
Series [2] addresses MAPK2 (Mitogen-activated protein kinase 2) (Homo sapiens, UniProt P28482).
A further series concerns the target CK2 (Casein kinase 2) (Homo sapiens, UniProt P68400).
The next series deals with SAPK2. The following applies: kinase SAPK2.
Series [3] has as its target T1, SAPK3 (Stress-activated protein kinase 3) (Homo sapiens, UniProt P53778).
T1 sequence (P53778 1-367): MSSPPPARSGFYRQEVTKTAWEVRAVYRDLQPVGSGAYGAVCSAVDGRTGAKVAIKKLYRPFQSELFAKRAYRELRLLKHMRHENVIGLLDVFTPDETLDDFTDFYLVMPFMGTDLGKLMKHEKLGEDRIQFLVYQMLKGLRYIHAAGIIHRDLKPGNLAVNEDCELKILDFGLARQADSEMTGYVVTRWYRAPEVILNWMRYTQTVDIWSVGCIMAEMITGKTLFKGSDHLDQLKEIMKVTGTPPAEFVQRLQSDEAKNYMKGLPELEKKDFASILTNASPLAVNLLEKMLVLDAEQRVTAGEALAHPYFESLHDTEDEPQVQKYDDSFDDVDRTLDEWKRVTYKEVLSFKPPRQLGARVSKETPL

Chain of MAPK2 (Mitogen-activated protein kinase 2) (P28482 whole entry): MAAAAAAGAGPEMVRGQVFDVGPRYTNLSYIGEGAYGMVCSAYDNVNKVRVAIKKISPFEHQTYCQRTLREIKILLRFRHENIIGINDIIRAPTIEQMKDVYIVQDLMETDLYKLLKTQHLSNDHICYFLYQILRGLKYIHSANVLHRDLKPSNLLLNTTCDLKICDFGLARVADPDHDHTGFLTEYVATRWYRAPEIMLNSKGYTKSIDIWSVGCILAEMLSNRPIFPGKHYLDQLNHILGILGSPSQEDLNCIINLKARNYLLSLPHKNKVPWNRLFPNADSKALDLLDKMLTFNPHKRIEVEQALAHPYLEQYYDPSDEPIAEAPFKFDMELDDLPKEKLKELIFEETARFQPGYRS
Chain of PKB (Protein kinase B) (P31749 whole entry): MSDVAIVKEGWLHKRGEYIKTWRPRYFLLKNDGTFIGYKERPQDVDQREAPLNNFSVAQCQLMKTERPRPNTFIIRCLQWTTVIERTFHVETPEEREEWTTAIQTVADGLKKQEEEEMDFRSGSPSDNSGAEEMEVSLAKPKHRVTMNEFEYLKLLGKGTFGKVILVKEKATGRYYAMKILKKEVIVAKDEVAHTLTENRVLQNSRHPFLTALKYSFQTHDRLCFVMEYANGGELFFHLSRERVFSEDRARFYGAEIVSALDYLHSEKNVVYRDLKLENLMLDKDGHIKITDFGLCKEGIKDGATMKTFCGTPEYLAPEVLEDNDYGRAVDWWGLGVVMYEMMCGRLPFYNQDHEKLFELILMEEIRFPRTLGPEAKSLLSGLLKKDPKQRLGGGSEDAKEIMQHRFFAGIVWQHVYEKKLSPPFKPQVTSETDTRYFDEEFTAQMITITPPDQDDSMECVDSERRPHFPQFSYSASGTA
Chain of CK2 (Casein kinase 2) (P68400 whole entry): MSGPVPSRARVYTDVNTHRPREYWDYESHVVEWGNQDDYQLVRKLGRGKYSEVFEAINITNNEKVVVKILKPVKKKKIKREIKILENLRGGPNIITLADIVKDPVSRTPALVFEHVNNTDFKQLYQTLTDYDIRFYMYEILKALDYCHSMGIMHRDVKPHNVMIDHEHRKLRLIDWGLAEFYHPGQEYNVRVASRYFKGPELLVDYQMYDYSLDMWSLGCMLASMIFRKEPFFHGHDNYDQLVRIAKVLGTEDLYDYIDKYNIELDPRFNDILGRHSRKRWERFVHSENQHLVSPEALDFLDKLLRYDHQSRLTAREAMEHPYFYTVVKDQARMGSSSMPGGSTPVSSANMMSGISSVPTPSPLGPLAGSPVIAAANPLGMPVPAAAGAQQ

Turning to `O=C1Cc2c([nH]c3ccc(Br)cc23)-c2ccccc2N1` [Kenpaullone], the “% of Expression Bain et al., (2002)” value is on record as 40-60% on PKB (Protein kinase B), 60-80% in series [2] and >80% on CK2 (Casein kinase 2). Besides, the “% of Expression Bain et al.” value in series [1] is on record as >80%.
With `CC(C)[C@H](CO)Nc1nc(Nc2cccc(Cl)c2)c2ncn(C(C)C)c2n1` [Purvalanol], the “% of Expression Bain et al.” value with SAPK2 is >80%. Moreover, the “percentage of expression, Bain et al., (2003)” value in series [3] is listed as “more than 80%”.
